In assay [1] the test system is pituitary gland.
The subject of assay [2] is dispersed rat pituitary cells. Description: In vitro suppression of LRF-generated LH secretion in dispersed rat pituitary cell culture. The class given is cell-based. To be noted: molar ratio of peptide to LRF; culture inoculated with 3×10^-5 M of LRF. The method, then: (§1) Using the above method, the peptide compositions set forth below in Tables I and II were prepared. The peptide compositions were assayed in vitro and in vivo. The in vitro assay was made using a 5 day old primary culture of dispersed rat pituitary cells. The LH secreted in response to the peptide compositions was assayed by specific radioimmunoassay for rat LH. The peptide compositions were applied to the culture at a level of 3×10^-5 M. The potency of these peptide compositions which stimulate secretion of gonadotropins is expressed in terms of percent LRF potency wherein LRF has a potency of 100. For those peptide compositions which are antagonistic to secretion of gonadotropins, the culture was inoculated with 3×10^-5 M of LRF and the molar ratio of the peptide required to suppress secretion of LH generated by the LRF was determined.

For assay [3], the system named is rats. Briefly: In vivo suppression of LH secretion generated by injected LRF in rats. Also noted: species or system rat. To be noted: molar ratio of peptide to LRF; rats injected with 100 nanograms of LRF. Here is the method: (§2) The effectiveness of the peptide compositions which stimulate secretion of gonadotropins was determined in vivo by intravenous injection of 100 nanograms of the peptide into rats. The rats were chronically ovariectomized and were treated with estrogen and progesterone prior to assay. The LH level was determined in plasma by solid phase radioimmunoassay for rat LH. For those peptide compositions which are antagonistic to secretion of gonadotropins, the rats were injected with 100 nanograms of LRF and the molar ratio of the peptide required to suppress section of LH generated by the LRF was determined.

Assay [4] concerns pituitary gland. Description: Release of gonadotropins after administration to a mammal. The settings on record: 500 nanograms per kilogram of body weight. The class given is in vivo.
In assay [5] the test system is pituitary gland. Description: Inhibition of release of gonadotropins by the pituitary gland (test not given). Also noted: species or system mammalians. To be noted: relative to Gly6 peptide.
Assay [6] concerns dispersed rat pituitary cells. Briefly: In vitro LH secretion by primary culture of dispersed rat pituitary cells (stimulation), rat LH radioimmunoassay. The class given is cell-based. To be noted: peptide applied to culture at 3×10^-5 M; LRF has a potency of 100. The method, then: as §1
In assay [7] the test system is rats. Description: In vivo plasma LH after intravenous injection into ovariectomized, estrogen/progesterone-treated rats. The settings on record: intravenous injection of 100 nanograms of peptide, LRF = 100. Also noted: species or system rat. Here is the method:
as §2

Here are results for nine molecules from patent publication US4072668A, “LH-RH Analogs” (The Salk Institute for Biological Studies, priority 1974, dated 1978).

Non-standard residues stand in square brackets, D forms with d. Residues, ends and D or L forms follow the SMILES beside them. pGlu = O=C1CC[C@@H](C(=O)O)N1

With `CC(C)C[C@H](NC(=O)[C@@H](CC(C)C)NC(=O)[C@H](Cc1ccc(O)cc1)NC(=O)[C@H](CO)NC(=O)[C@H](Cc1c[nH]c2ccccc12)NC(=O)[C@H](Cc1c[nH]cn1)NC(=O)[C@@H]1CCC(=O)N1)C(=O)N[C@@H](CCCNC(=N)N)C(=O)N1CCC[C@H]1C(=O)NCC(N)=O` [D-Leu for Gly], in the assay with pituitary gland [1], the “percent potency for effecting release of luteinizing hormone (compared to the LRF decapeptide)” value (from here on “percent potency for effecting release”) was found to be 60%. On to `CC(C)C[C@H](NC(=O)[C@H]1CCCN1C(=O)[C@H](Cc1ccc(O)cc1)NC(=O)[C@H](CO)NC(=O)[C@H](Cc1c[nH]c2ccccc12)NC(=O)[C@H](Cc1c[nH]cn1)NC(=O)[C@@H]1CCC(=O)N1)C(=O)N[C@@H](CCCNC(=N)N)C(=O)N1CCC[C@H]1C(=O)NCC(N)=O` [D-Pro], for which the “percent potency for effecting release” value in the assay on pituitary gland [1] came to 10%. As to `CC(C)C[C@H](NC(=O)[C@H](NC(=O)[C@H](Cc1ccc(O)cc1)NC(=O)[C@H](CO)NC(=O)[C@H](Cc1c[nH]c2ccccc12)NC(=O)[C@H](Cc1c[nH]cn1)NC(=O)[C@@H]1CCC(=O)N1)C(C)C)C(=O)N[C@@H](CCCNC(=N)N)C(=O)N1CCC[C@H]1C(=O)NCC(N)=O` [D-Val for Gly], the “percent potency for effecting release” value in the assay on pituitary gland [1] was 30%.

As to `CC(C)C[C@H](NC(=O)[C@H](C)NC(=O)[C@H](Cc1ccc(O)cc1)NC(=O)[C@H](CO)NC(=O)[C@H](Cc1c[nH]c2ccccc12)NC(=O)[C@H](Cc1c[nH]cn1)NC(=O)[C@@H]1CCC(=O)N1)C(=O)N[C@@H](CCCNC(=N)N)C(=O)N1CCC[C@H]1C(=O)NCC(N)=O` [L-Ala for Gly in the 6-position of LRF], in the assay on pituitary gland [1], the “percent potency for effecting release” value was 3%. Regarding `CCNC(=O)[C@@H]1CCCN1C(=O)[C@H](CCCNC(=N)N)NC(=O)[C@H](CC(C)C)NC(=O)[C@@H](C)NC(=O)[C@H](Cc1ccc(O)cc1)NC(=O)[C@H](CO)NC(=O)[C@H](Cc1c[nH]c2ccccc12)NC(=O)CNC(=O)[C@@H]1CCC(=O)N1` [pGlu-Gly-Trp-Ser-Tyr-D-Ala-Leu-Arg-Pro-NHCH2 CH3] ([pGlu]GWSY[dA]LRP-NHEt), the “Molar ratio necessary to produce inhibition In Vitro” value in assay [2] came to 700. The “Molar ratio necessary to produce inhibition In Vivo” value in the assay with rats [3] worked out at 500. Consider `CC(C)C[C@H](NC(=O)CNC(=O)[C@H](Cc1ccc(O)cc1)NC(=O)[C@H](CO)NC(=O)[C@H](Cc1c[nH]c2ccccc12)NC(=O)[C@H](Cc1c[nH]cn1)NC(=O)[C@@H]1CCC(=O)N1)C(=O)N[C@@H](CCCNC(=N)N)C(=O)N1CCC[C@H]1C(=O)NCC(N)=O` [pGlu-His-Trp-Ser-Tyr-Gly-Leu-Arg-Pro-Gly-NH2], for which, in the assay on pituitary gland [4], the “release of gonadotropins by the pituitary gland (in words)” value is “significant release of gonadotropins”. As for `CC(C)C[C@H](NC(=O)[C@@H](C)NC(=O)[C@H](Cc1ccc(O)cc1)NC(=O)[C@H](CO)NC(=O)[C@H](Cc1c[nH]c2ccccc12)NC(=O)[C@@H]1CCC(=O)N1)C(=O)N[C@@H](CCCNC(=N)N)C(=O)N1CCC[C@H]1C(=O)NCC(N)=O` [pGlu-Trp-Ser-Tyr-D-Ala-Leu-Arg-Pro-Gly-NH2] ([pGlu]WSY[dA]LRPG-NH2), the “Molar ratio necessary to produce inhibition In Vitro” value in assay [2] is given as 700. Further, the “Molar ratio necessary to produce inhibition In Vivo” value with rats [3] is 500. For the same molecule, the “times more potent as inhibitor for release of gonadotropins than the same peptide with Gly in the 6-position” value in the assay on pituitary gland [5] came to 3 times. Take `CC(C)C[C@H](NC(=O)CNC(=O)[C@H](Cc1ccc(O)cc1)NC(=O)[C@H](CO)NC(=O)[C@H](Cc1c[nH]c2ccccc12)NC(=O)[C@@H]1CCC(=O)N1)C(=O)N[C@@H](CCCNC(=N)N)C(=O)N1CCC[C@H]1C(=O)NCC(N)=O` [pGlu-deleted-Trp-Ser-Tyr-Gly-Leu-Arg-Pro-Gly-NH2] ([pGlu]WSYGLRPG-NH2): in assay [2], the “Molar ratio necessary to produce inhibition In Vitro” value is recorded as 2,000. Besides, the “Molar ratio necessary to produce inhibition In Vivo” value in the assay with rats [3] was 3,000.

“pGlu-His-Trp-Ser-Tyr-Gly-Leu-Arg-Pro-NHCH 2 CH3”: in assay [6], the “Percent LRF Potency In Vitro” value is listed as 1,500%. Moreover, the “Percent LRF Potency In Vivo” value with rats [7] was 300%.
